Results reported in patent publication US12048725B2, “Methods for promoting intestinal health and for enhancing antioxidation using prebiotic composition” (TCI CO., LTD., priority 2022, dated 2024).

System: Akkermansia muciniphila
Assay: Effects of prebiotic compositions with different components on growth of Akkermansia muciniphila (Example 2)
Type: cell-based
Excerpt: The xylooligosaccharide used was purchased from Shandong Longlive Bio-Technology Co., Ltd. The lactitol used was purchased from Welltech Biotechnology Co., Ltd. The inulin used was purchased from Cosucra. The fructooligosaccharide used was purchased from Meiji. The grape ferment used was the grape ferment prepared in Example 1. The liquid medium used was tryptone soy broth (TSB; hereinafter referred to as TSB medium) with 5% sheep blood (purchased from BD).
The groups were divided into blank group, 5 experimental groups (experimental groups A-E) and 5 control groups (control groups A-E), as shown in Table 1.
The experimental medium used in control groups A-E included 94% TSB medium, 5% sheep blood and 1% single-component prebiotic compositions A-E, respectively; and the single-component prebiotic compositions A-E were xylooligosaccharide, lactitol, inulin, fructooligosaccharide and grape ferment, respectively. […]
1% activated Akkermansia muciniphila was respectively added to a 15 mL test tube containing 5 mL of medium of each group, and subjected to anaerobic culture at 37° C. for 48 hours. After 48 hours of culture, 100 μL of bacterial suspension was respectively taken from the test tube of each group, added to the solid TSB medium containing 5% sheep blood, and subjected to anaerobic culture at 37° C. for 72 hours, and then, the bacterial count of each group was calculated. […]

In the case of `OC[C@@H](O)[C@@H](O[C@@H]1O[C@H](CO)[C@H](O)[C@H](O)[C@H]1O)[C@H](O)[C@@H](O)CO` [control group B, lactitol], the bacterial count (1% prebiotic composition in 94% TSB medium + 5% sheep blood, anaerobic culture at 37° C. for 48 hours, then plated 72 hours, blank group 6.50 log CFU) is reported as 6.67 log CFU and the “effect on bacterial count/growth of Akkermansia muciniphila as compared with the blank group” value (1% prebiotic composition in medium, FIG. 1) is reported as “increased the bacterial count of Akkermansia muciniphila”.
